Reference: patent US20080255238A1, “COMPOSITION CONTAINING A THIOUREA DERIVATIVE FOR PREVENTING OR TREATING PRURITIC OR IRRITANT SKIN DISEASES” (AMOREPACIFIC CORPORATION, priority 2004, published 2008)

Tests used:
[1] = test system: ICR mice; assay: Itching induced by compound 48/80 (C48/80) in ICR mice, intradermal administration; type: in vivo; settings: for % Inhibition (mean ± SE): scratching frequency over 60 min, C48/80 50 μg/mouse i.d., ICR mice
Text: Itching Induced by Compound 48/80 (C48/80) in ICR Mice
Intradermal Administration
ICR mice suffer from itching upon administration of histamines, and C48/80 (condensation product of N-methyl-p-methoxyphenethylamine with formaldehyde, Sigma, U.S.A.) is a substance that stimulates connective tissues and skin mast cells to release mediators, such as histamines, causing itching. C48/80 causes itching when intradermally administered to humans (Rukwied et al., 2000, Br. J. Pharmacol., 142, pp 1114-1120). In this experiment, ICR mice received C48/80 to induce itching. One day before the experiment, the rostral part of the skin on the back of male ICR mice (28˜32 g, 4˜11 mice/group) was clipped. After the drug (compound 1, 50 μl/mouse) was dissolved in hydroxypropyl-β-cyclodextrin (HP-β-CD; Mitsubishi Ltd., Japan) and C48/80 (50 μg/50 μl/mouse) was dissolved in a physiological saline solution, the solutions were simultaneously injected intradermally into the back skin of mice. Immediately after the injection, the mice were placed in a transparent cage and then the frequency of scratching of the injected site by the hind paws was counted for 60 minutes. The frequency of scratching in test groups administered with the drug was compared to that in a control group administered with C48/80 alone. The decrease in the frequency of scratching in the test groups was determined as an index of inhibitory effects on itching. The decrease in the frequency of scratching was expressed as a percentage of inhibition to determine inhibitory effects of each compound on itching.

[2] = test system: New Zealand white rabbits; assay: Inhibition of skin irritation induced by retinoic acid in New Zealand white rabbits, topical administration; type: in vivo
Text: Inhibition of Skin Irritation Induced by Retinoic Acid in New Zealand White Rabbits
However, it is known that retinoic acid causes irritation in its initial stage of use and further causes side effects, such as skin erythema and edema, when topically applied to the skin (Varani et al., 2003, Arch. Dermatol. Res., 295, pp 255-262). A number of attempts to reduce the skin irritation induced by retinoic acid have been made in many directions (Kim et al., 2003, Toxicol. Letters., 146, pp 65-73). […] In this experiment, New Zealand white rabbits received retinoic acid to cause skin irritation. One day before the experiment, hairs around the back of four male New Zealand white rabbits (2.0˜2.5 kg) were shaved. Four application sites, which are symmetrical by two (i.e. right upper-site-left upper site and right lower site-left lower site), were marked at the shaved back of each rabbit. 100 μl of 0.025% retinoic acid (Sigma, U.S.A.) was topically applied to all four-application sites. 30 minutes after the application, the two sites marked at the right were treated with the drug (compound 1, 1%/100 μl/each application site), and the two sites marked at the left were treated with a solvent (100 μl/each application site) alone. At this time, retinoic acid and the drug were dissolved in a mixed solution of PEG 400 and ethanol (7:3), and then topically applied twice daily for four consecutive days. On the fifth day, the application sites were visually observed to evaluate the degree of skin irritation. The degree of skin irritation was expressed in a cumulative irritation index. […] The cumulative irritation index was judged based on occurrence of erythema, and scored in accordance with the following criteria: Occurrence of no erythema (0), occurrence of slightly visible erythema (1), occurrence of distinct erythema (2), occurrence of distinct scarlet erythema (3), and occurrence of distinct crimson erythema and scaling (4).

CC(C)(C)c1ccc(CNC(=S)NCc2ccc(NS(C)(=O)=O)c(F)c2)cc1 [Compound 1, 1-(4-t-butylbenzyl)-3-(3-fluoro-4-methanesulfonylaminobenzyl)thiourea]
inhibitory effects on itching (in words) ([1]; C48/80, ICR mice): potent antipruritic effects in a dose-dependent manner | % Inhibition (mean ± SE) ([1]; dose 0.03 mg/mouse): −6.51 ± 17.39% | % Inhibition (mean ± SE) ([1]; dose 0.1 mg/mouse): 36.96 ± 13.44% | % Inhibition (mean ± SE) ([1]; dose 0.3 mg/mouse): 44.11 ± 10.36% | % Inhibition (mean ± SE) ([1]; dose 1 mg/mouse): 69.03 ± 7.76% | % Inhibition (mean) ([2]; decrease in cumulative irritation index vs retinoic acid + solvent, compound 1%, 100 μl/application site, topical, rabbits): 40% | Cumulative irritation index (mean ± SE) ([2]; erythema score 0-4 on fifth day, retinoic acid 0.025% + compound 1%, 100 μl/application site, topical twice daily for four days, rabbits): 1.88 ± 0.45 | inhibitory effects on skin irritation (in words) ([2]; retinoic acid, New Zealand white rabbits, topical): inhibitory effects on skin irritation
